Data as given in publication PMC12040169 (PLOS Biology, 2025).

Experiment: in vitro
Details: human, hela cells, % viability

| Compound | viability at 28.5 h, 10 µM |
| --- | --- |
| CC[C@H](Cn1c(=O)oc2ccccc21)NC(=O)Cc1ccsc1 [CBK284543] | 89.2% |
| C[C@H](Cn1nc2c(cc1=O)CCCCC2)NC(=O)C1CCCC1 [CBK284546] | 83.2% |
| C[C@@H](Cn1nc2c(cc1=O)CCCC2)NC(=O)c1ccco1 [CBK284559] | 92.2% |
| C[C@@H](Cn1nc2c(cc1=O)CCCC2)NC(=O)c1ccccc1F [CBK284560] | 92.5% |
| C[C@@H](Cn1nc2c(cc1=O)CCCC2)NC(=O)c1cccc(F)c1 [CBK284561] | 87.5% |
| C[C@@H](Cn1nc2c(cc1=O)CCCC2)NC(=O)c1ccc(F)cc1 [CBK284562] | 91.3% |
| Cc1cccc(C(=O)N[C@@H](C)Cn2nc3c(cc2=O)CCCC3)c1 [CBK284563] | 89.1% |
| Cc1nc2nc(-c3ccc(F)cc3F)cn2nc1C [CBK284564] | 90.3% |
| CCN1C(=O)c2ccccc2C(=O)[C@@]2(C)CN(C(=O)C3CC3)C[C@@H]12 [CBK284567] | 81.5% |
| Cc1cc(C)n(CCCC(=O)N2C[C@H]3CCc4c[nH]nc4[C@H]3C2)n1 [CBK284573] | 101% |
| CCOC(=O)C1(Cc2cc(-c3cccc(F)c3)no2)CCCNC1 (stereo not shown) [CBK284578] | 87.3% |
| CCOC(=O)C1(Cc2cc(-c3ccccc3)no2)CCCNC1 (stereo not shown) [CBK284583] | 98.9% |
| CC(=O)N1C[C@@H](c2ccsc2)[C@@H]2CN(Cc3ccccc3)CC[C@@H]21 [CBK284585] | 109% |
| CC(=O)N1C[C@H](c2ccsc2)[C@H]2CN(Cc3cccs3)CC[C@H]21 [CBK284586] | 109% |
| CN1C[C@@H](C(=O)N2CCCCCC2)[C@@]2(CCc3ccccc3C2=O)C1 [CBK284590] | 87% |
| CC(=O)NCCn1cc2c(n1)[C@H]1CN(C(=O)CC(C)(C)C)C[C@H]1CC2 [CBK284592] | 93.8% |
| Cc1csc2c(C3CCCN(C(=O)c4cnn(C)c4)C3)nc(C)n12 (stereo not shown) [CBK284595] | 98.5% |
| COC1CCCC(C(=O)N2CCC(c3onc4c3CCCC4)CC2)C1 (stereo not shown) [CBK284598] | 94.3% |
| O=C(Cc1ccccc1F)N1CCCC(c2cnccn2)C1 (stereo not shown) [CBK284601] | 96.8% |
| COCC(=O)N1C2CCC(C2)[C@@H]1COc1ccc(F)cc1 (stereo partly shown) [CBK284603] | 109% |
| COCCC(=O)N1C2CCC(C2)[C@@H]1COc1ccc(F)cc1 (stereo partly shown) [CBK284604] | 96% |
| O=C(Cc1cccs1)N1CCC(c2nnc3n2CCCCC3)CC1 [CBK284606] | 83.1% |
| O=C(c1ccco1)N1CCC(c2nnc3n2CCCCC3)CC1 [CBK284607] | 94.3% |

| Compound | viability at 28.5 h, 10 µM |
| --- | --- |
| Cc1ccc(C2(O)CC3CCC(C2)N3C(=O)c2ccncc2)cc1 (stereo not shown) [CBK284609] | 100% |
| O=C(C1CCCCC1)N1CCC(c2nnc3n2CCCCC3)CC1 [CBK284613] | 92.7% |
| CCC(CC)C(=O)N1CCC(c2nnc3n2CCCCC3)CC1 [CBK284614] | 86.6% |
| O=C(C1CCCCC1)N1CC(n2nc(-c3ccccc3)ccc2=O)C1 [CBK284616] | 92.8% |
| O=C(C1CCCC1)N1CC(n2nc(-c3ccccc3)ccc2=O)C1 [CBK284617] | 93.9% |
| CCC(C(=O)N1CCc2nc(C)[nH]c(=O)c2C1)c1ccccc1 (stereo not shown) [CBK284618] | 91.6% |
| Cc1cccc(CN2CCC3(CCc4ccccc4C(=O)N3)C2)n1 (stereo not shown) [CBK284619] | 106% |
| O=C1NC2(CCc3ccccc31)CCN(Cc1cccnc1)C2 (stereo not shown) [CBK284620] | 96.5% |
| Cc1cc(C)c2c(NCc3ccc(C)o3)n[nH]c2n1 [CBK284621] | 94.9% |
| CC(C)(C)C(=O)N1CC(n2nc(-c3ccccc3)ccc2=O)C1 [CBK284623] | 92.1% |
| O=C(C1CCC1)N1CC(n2nc(-c3ccccc3)ccc2=O)C1 [CBK284624] | 79.2% |
| O=C(c1cccs1)N1CCC(c2nnc3n2CCCCC3)CC1 [CBK284626] | 95.7% |
| O=C(c1cccc(F)c1)N1CCC(c2nnc3n2CCCCC3)CC1 [CBK284627] | 103% |
| O=C(CC1CCCC1)N1CCC(c2nnc3n2CCCCC3)CC1 [CBK284630] | 84.6% |
| O=C(CC1CCCC1)N1CCCC(c2nnc(-c3cccs3)o2)C1 (stereo not shown) [CBK284631] | 94.3% |
| O=C(Cc1ccccc1F)NCc1nnc(-c2cccs2)o1 [CBK284632] | 82% |
| O=C(NCc1nnc(-c2cccs2)o1)C1(c2ccccc2)CC1 [CBK284635] | 96.2% |
| O=C(Cc1ccc(F)cc1)NCc1nnc(-c2cccs2)o1 [CBK284640] | 82.6% |
| Cc1ccc(-c2nnc(CNC(=O)c3cccc(F)c3F)o2)s1 [CBK284641] | 91.1% |
| Cc1ccc(-c2nnc(CNC(=O)c3cccc(Cl)c3)o2)s1 [CBK284646] | 79.1% |
| Cc1ccc(-c2nnc(CNC(=O)c3ccc(F)c(F)c3)o2)s1 [CBK284647] | 90.5% |
| COCc1ccc(CN2CCC3(CCc4ccccc4C(=O)N3)C2)o1 (stereo not shown) [CBK284651] | 94.3% |
| CC(C)C(=O)N1CCC(c2nc3ccc(F)cc3cc2N)CC1 [CBK284656] | 81.5% |

| Compound | viability at 28.5 h, 10 µM |
| --- | --- |
| OC1(Cn2cnc3ccccc32)CCN(Cc2ccc(F)cc2)CC1 [CBK284661] | 85.7% |
| Cc1cnn(CCC(=O)NC(Cc2ccsc2)c2nccs2)c1 (stereo not shown) [CBK284664] | 88.4% |
| O=C(CCc1cccnc1)NC(Cc1ccsc1)c1nccs1 (stereo not shown) [CBK284665] | 99.5% |
| Cn1ccc(C2CCCCCN2S(=O)(=O)c2ccc(F)cc2)n1 (stereo not shown) [CBK284671] | 98.8% |
| CCS(=O)(=O)N1CCCCCC1c1nn(C)cc1Cl (stereo not shown) [CBK284672] | 83.6% |
| Cn1nc(C(F)(F)F)cc1C1CCCCCN1S(C)(=O)=O (stereo not shown) [CBK284673] | 101% |
| O=C(Cn1c(C2CCOCC2)cc2cccnc21)N1CCCCCC1 [CBK284674] | 105% |
| CC1CCCCN1C(=O)Cn1c(C2CCOCC2)cc2cccnc21 (stereo not shown) [CBK284675] | 97.7% |
| CC(=O)NC(c1nccs1)C1CCN(C(=O)C(C)(C)C)CC1 (stereo not shown) [CBK284677] | 88.9% |
| CC(C)(C)C(=O)NC(c1nccs1)C1CCN(C(=O)C2CC2)CC1 (stereo not shown) [CBK284678] | 88.8% |
| C1=C(CNC(Cc2cccs2)c2nccs2)COCC1 (stereo not shown) [CBK284682] | 103% |
| Cc1c(CN2CCCC(c3cc4cccnc4[nH]3)C2)cnn1C (stereo not shown) [CBK284683] | 99.7% |
| Cc1cc(C)n(CC(=O)NC(Cc2cccs2)c2nccs2)n1 (stereo not shown) [CBK284686] | 85.8% |
| c1cnc2[nH]c(C3CCOCC3)c(CN3CCSCC3)c2c1 [CBK284688] | 89.5% |
| CC(C)n1nccc1NC(=O)CCn1c(C(F)F)cc2cccnc21 [CBK284690] | 99.3% |
| Cc1csc(C(Cc2cccs2)NC(=O)CN2CCCC2=O)n1 (stereo not shown) [CBK284691] | 109% |
| Cc1cc(C)n(CCNCc2cc(-c3ccc(F)cc3)c[nH]c2=O)n1 [CBK284694] | 89.2% |
| O=c1[nH]cc(-c2ccc(F)cc2)cc1CNCc1ccccc1F [CBK284696] | 86.1% |
| Cc1cc(C(F)(F)F)c2c(NCc3ccoc3)n[nH]c2n1 [CBK284698] | 82.9% |
| COc1ccc2[nH]cc([C@@H]3CCC[C@H](NC(=O)C4CCCO4)C3)c2c1 (stereo partly shown) [CBK284699] | 105% |
| C[C@]12CN(CCc3ccccc3)C[C@H]1NC(=O)c1ccccc1C2=O [CBK284704] | 90.3% |
| Cc1ccc(CN2C[C@H]3C(=O)Nc4ccccc4C(=O)N[C@@]3(C)C2)o1 [CBK284706] | 95.7% |
| CCOC(=O)Cn1ccc2ccnc(-c3cccc(OC)c3)c21 [CBK284707] | 89.6% |

| Compound | viability at 28.5 h, 10 µM |
| --- | --- |
| O=C(c1ccccc1F)N1CCCC(c2cc3ncccc3cn2)C1 (stereo not shown) [CBK284710] | 83.3% |
| CCCNC(=O)Cn1nc(-c2cc3c(s2)CCC3)oc1=O [CBK284713] | 95.2% |
| CC(C)(C)NC(=O)Cn1nc(-c2cc3c(s2)CCC3)oc1=O [CBK284714] | 101% |
| C[C@H]1CN2C[C@H](O)CC2CN1Cc1cccc2ccccc12 (stereo partly shown) [CBK284717] | 92.5% |
| CCOC(=O)C(NC(=O)CCn1ccc2ccncc21)C(C)C (stereo not shown) [CBK284719] | 91.6% |
| CCCC(=O)N1CCC([C@@H]2C[C@H](C(F)F)n3nc(C)cc3N2)CC1 [CBK284724] | 97.6% |
| Cc1cc2n(n1)[C@@H](C(F)F)C[C@@H](C1CCN(C(=O)C(C)C)CC1)N2 [CBK284725] | 88% |
| COCC(C)NCc1cc(-c2ccc(Cl)cc2)c[nH]c1=O (stereo not shown) [CBK284726] | 79% |
| Cc1ccn(CCNCc2cc(-c3ccc(Cl)cc3)c[nH]c2=O)n1 [CBK284727] | 88.4% |
| C[C@]12CN(Cc3ccc(F)cc3)C[C@H]1NC(=O)c1ccccc1C2=O [CBK284728] | 87.8% |
| O=C(NC1CCN(C(=O)Cn2ccc3ccncc32)CC1)C1CC1 [CBK284731] | 98.9% |
| O=C(Cn1ccc2ccnc(-c3cccs3)c21)NCc1ccncc1 [CBK284734] | 86.5% |
| O=C(Cn1ccc2ccnc(-c3cccs3)c21)N1CCC(O)CC1 [CBK284736] | 93.1% |
| CC(C)(C)NC(=O)Cn1ccc2ccnc(-c3cccs3)c21 [CBK284737] | 94.1% |
| C[C@]12CN(CC3CC=CCC3)C[C@H]1C(=O)Nc1ccccc1C(=O)N2 (stereo partly shown) [CBK284738] | 96.6% |
| O=C1N[C@]2(Cc3ccccc31)CN(Cc1ccccc1)C[C@H]2CO [CBK284743] | 92.1% |
| CC(C)C(=O)N1CCC(c2nc3ccccn3c2NC(C)(C)C)CC1 [CBK284745] | 95% |
| CC(CC(=O)NC1(C#Cc2nccs2)CCCCC1)n1ccnc1 (stereo not shown) [CBK284746] | 99.5% |
| O=C(c1cc(C2CC2)n[nH]1)N1CCn2cc(C(F)(F)F)nc2C1 [CBK284749] | 81.6% |
| NC1CCN(C(=O)Cn2ccc3ccnc(-c4cccs4)c32)CC1 [CBK284750] | 85.7% |
| Cc1ccc(CN2CCC(O)(Cn3ccc4ncccc43)CC2)o1 [CBK284751] | 97.7% |
| CCC(C)NC(=O)Cn1c(C2CCOCC2)cc2cc(C)cnc21 (stereo not shown) [CBK284756] | 94.3% |
